Reference: ChEMBL document CHEMBL1201862, “PubChem BioAssay data set” (2004)
Activity calls are given as the source filed them.

Tests used:
Large T antigen = Large T antigen (Simian virus 40, UniProt P03070); assay type: functional, Betapolyomavirus macacae;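 note: Confirmatory-stage PubChem screen for compounds that inhibit SV40 T antigen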
[1] = target: T1, Heat shock factor protein 1 (Mus musculus, UniProt P38532); assay: decrease of HSF1-responsive luciferase luminescence – cell-based, NIH3T3, dose retest, confirmation (AID 2382); assay type: functional;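 note: NIH3T3 fibroblasts with HSF1-driven luciferase reporter stressed by proteasome inhibitor MG132; luminescence from HSF1-driven luciferase expression after 8 hours of MG132 stress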
T1 sequence (P38532 whole entry): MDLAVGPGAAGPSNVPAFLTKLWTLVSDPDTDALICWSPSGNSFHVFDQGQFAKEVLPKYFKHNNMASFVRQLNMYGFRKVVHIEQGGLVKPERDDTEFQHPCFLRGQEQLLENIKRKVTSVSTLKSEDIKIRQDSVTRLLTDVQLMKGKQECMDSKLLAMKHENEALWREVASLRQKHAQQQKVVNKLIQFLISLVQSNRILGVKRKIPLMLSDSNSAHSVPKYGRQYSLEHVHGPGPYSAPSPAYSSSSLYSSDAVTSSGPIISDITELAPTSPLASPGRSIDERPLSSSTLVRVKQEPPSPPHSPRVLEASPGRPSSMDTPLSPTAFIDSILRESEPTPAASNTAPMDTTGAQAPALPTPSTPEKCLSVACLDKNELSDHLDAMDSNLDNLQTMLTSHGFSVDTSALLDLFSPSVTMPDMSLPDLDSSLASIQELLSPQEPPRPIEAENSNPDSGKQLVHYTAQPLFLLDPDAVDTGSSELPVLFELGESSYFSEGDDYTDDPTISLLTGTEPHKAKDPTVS

[2] = Trypanosoma cruzi growth suppression in host cells – NIH3T3 host cells, beta-gal luminescence, confirmation (AID 2044); assay type: functional, cell-based;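 note: intracellular parasites grown in NIH/3T3 mouse fibroblasts as host cells; luminescent beta-galactosidase reporter signal from transgenic T. cruzi replicating inside host cells; inhibitors lower the luminescence signal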
[3] = NIH3T3 cell viability loss – ATP luminescence, mouse fibroblasts, counter-screen, dose response (AID 2010); assay type: functional, cell-based;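 note: cells exposed to compound for about 90 hours before reading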
[4] = target: T1, Heat shock factor protein 1; assay: enhancement of HSF1-driven luciferase signal – cell-based, NIH3T3, luminescence, dose retest, confirmation (AID 435004); assay type: functional;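 note: stress induced by proteasome inhibitor MG132 added 30 min after compound; luciferase reporter driven by HSF1 response element in NIH3T3 cells; actives raise luminescence as potentiators of the MG132 stress response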
[5] = Luminescence Cell-Based Dose Confirmation HTS to Identify Activators of 5'UTR Stem-Loop Driven Alpha-Synuclein mRNA Translation in H4 Neuroglioblastoma Cells. [Related pubchem assays: 1829 (Project Summary), 1814 (Primary HTS)]; assay type: functional
[6] = Luminescence Cell-Based Dose Response HTS to Identify Activators of Luciferase Translation or Activity in H4 […] Cells. [Related pubchem assays: 1829 (Project Summary), 1814 (Primary HTS)]; assay type: functional
H4 = assay: Luminescence Cell-Based Dose Response HTS to Identify Activators of 5'UTR Stem-Loop Driven Prion Protein mRNA Translation in H4 Neuroglioblastoma Cells. [Related pubchem assays: 1829 (Project Summary), 1814 (Primary HTS)]; assay type: functional; conditions: Homo sapiens
[7] = viability of uninfected HEp-2 cells – cell-based, HTS, cytotoxicity control for RSV inhibitor project, dose response (AID 2410); assay type: functional; conditions: human respiratory syncytial virus
[8] = target: T2, RNA-binding protein pos-1 (Caenorhabditis elegans, UniProt G5EF15); assay: disruptors of C. elegans POS-1 RNA interaction – biochemical, fluorescence polarization, dose response (AID 1964);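 note: purified POS-1 fused to maltose binding protein made in E. coli; potency of compounds blocking POS-1 binding to fluorescent RNA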
T2 sequence (G5EF15 whole entry): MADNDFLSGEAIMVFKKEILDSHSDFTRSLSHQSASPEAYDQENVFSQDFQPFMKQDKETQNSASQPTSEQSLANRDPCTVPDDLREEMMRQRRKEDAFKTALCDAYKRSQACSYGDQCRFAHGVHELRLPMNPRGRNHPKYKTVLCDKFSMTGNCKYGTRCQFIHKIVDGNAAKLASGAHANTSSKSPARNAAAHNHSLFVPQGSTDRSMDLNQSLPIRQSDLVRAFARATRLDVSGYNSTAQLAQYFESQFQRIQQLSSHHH

[9] = target: T3, Zinc finger protein mex-5 (Caenorhabditis elegans, UniProt Q9XUB2); assay: potency of MEX-5 RNA-binding blockers – biochemical, C. elegans, fluorescence polarization, dose response (AID 1960)
T3 sequence (Q9XUB2 whole entry): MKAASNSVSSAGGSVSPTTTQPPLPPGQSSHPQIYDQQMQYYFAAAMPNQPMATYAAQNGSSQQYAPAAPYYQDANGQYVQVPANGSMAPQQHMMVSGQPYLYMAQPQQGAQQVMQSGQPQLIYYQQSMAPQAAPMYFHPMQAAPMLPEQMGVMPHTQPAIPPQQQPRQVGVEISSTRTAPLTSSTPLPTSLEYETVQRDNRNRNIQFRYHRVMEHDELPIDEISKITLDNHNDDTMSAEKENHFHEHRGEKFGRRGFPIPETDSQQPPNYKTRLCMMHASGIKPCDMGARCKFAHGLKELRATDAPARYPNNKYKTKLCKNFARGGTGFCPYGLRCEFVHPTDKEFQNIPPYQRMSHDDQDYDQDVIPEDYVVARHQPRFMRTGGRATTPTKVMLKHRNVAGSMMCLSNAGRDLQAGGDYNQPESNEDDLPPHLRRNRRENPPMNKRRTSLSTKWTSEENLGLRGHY

Cytochrome P450 2C19 = Cytochrome P450 2C19 (Homo sapiens, UniProt P33261); assay: Cytochrome panel assay with activity outcomes. Panel member name: p450-cyp2c19 Compounds with AC50 equal or less than 10 uM are considered active; assay type: functional; conditions: read-out: AC50
[10] = target: T4, Rac GTPase-activating protein 1 (Homo sapiens, UniProt Q9H0H5); assay: blockers of MgcRacGAP-driven Rac1 GTP hydrolysis – biochemical, ADP Hunter fluorescence, primary and confirmatory, confirmation (AID 624330); assay type: functional
T4 sequence (Q9H0H5 whole entry): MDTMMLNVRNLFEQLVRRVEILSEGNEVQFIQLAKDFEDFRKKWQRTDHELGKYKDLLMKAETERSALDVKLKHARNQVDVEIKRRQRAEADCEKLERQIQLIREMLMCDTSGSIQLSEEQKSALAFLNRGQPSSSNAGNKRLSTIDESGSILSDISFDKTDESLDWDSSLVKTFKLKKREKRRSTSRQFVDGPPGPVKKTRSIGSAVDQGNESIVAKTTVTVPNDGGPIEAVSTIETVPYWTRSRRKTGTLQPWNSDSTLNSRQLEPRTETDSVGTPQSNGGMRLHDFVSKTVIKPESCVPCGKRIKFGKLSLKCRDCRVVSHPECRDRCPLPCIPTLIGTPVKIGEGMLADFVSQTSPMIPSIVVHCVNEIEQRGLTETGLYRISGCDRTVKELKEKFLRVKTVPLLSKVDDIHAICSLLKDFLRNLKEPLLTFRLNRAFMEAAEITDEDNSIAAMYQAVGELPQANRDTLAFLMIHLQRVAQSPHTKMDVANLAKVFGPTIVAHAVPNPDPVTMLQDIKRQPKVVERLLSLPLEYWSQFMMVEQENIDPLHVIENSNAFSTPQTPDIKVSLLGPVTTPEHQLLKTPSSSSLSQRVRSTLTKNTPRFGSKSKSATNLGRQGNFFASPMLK

Sequence of Large T antigen (P03070 whole entry): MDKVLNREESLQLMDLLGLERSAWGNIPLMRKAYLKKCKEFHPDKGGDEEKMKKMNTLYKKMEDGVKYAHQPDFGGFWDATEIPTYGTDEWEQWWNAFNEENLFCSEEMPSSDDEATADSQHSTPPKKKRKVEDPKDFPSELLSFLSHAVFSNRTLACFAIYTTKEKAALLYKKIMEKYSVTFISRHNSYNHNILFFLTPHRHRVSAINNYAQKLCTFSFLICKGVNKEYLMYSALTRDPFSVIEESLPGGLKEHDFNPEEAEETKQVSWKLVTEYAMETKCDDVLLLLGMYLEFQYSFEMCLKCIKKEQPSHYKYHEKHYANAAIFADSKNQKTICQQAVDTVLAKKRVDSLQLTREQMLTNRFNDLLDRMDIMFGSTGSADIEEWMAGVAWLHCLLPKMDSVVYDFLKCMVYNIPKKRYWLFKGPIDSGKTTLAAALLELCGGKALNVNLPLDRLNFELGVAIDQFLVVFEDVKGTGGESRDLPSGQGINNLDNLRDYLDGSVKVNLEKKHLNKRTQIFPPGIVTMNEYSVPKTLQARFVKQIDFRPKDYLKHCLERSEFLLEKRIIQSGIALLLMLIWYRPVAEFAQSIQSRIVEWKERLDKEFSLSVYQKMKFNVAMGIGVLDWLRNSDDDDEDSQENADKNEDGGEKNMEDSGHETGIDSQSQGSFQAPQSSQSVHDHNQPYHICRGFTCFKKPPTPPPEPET
Sequence of Cytochrome P450 2C19 (P33261 whole entry): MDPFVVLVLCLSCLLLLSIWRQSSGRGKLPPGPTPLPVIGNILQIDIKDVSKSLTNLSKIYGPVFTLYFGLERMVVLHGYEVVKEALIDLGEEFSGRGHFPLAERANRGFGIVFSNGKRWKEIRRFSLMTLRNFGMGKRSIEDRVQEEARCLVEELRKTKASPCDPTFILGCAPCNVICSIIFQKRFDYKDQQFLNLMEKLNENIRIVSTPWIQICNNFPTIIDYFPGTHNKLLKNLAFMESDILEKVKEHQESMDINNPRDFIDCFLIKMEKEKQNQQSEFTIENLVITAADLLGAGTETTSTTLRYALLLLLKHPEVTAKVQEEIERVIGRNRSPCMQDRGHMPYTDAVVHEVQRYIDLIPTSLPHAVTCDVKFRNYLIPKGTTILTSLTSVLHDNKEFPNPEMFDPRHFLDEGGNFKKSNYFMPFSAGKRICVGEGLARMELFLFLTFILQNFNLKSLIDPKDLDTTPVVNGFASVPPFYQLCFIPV

## CN(C)c1ccc(N2C(=O)CC(Nc3ccc(N4CCOCC4)cc3)C2=O)cc1 (centres undefined)
Large T antigen
  IC50: 12.9 µM (active)

## O=Nc1ccc(NOC(=O)c2ccccc2Br)cc1
Large T antigen
  IC50: 30.1 µM (active)

## Cc1cccc(NC(=O)c2sc(-c3ccccc3)nc2-c2ccc([N+](=O)[O-])cc2)c1
[1]
  EC50: > 195 µM (not active)
[2]
  EC50: 1.53 µM (active)
[3]
  EC50: > 60 µM (not active)

## O=C(CN(CC1CCCO1)S(=O)(=O)c1ccc(S(=O)(=O)NC2CC2)cc1)Nc1ccccc1 (centres undefined)
[4]
  EC50: > 260 µM (inactive)

## Nc1[nH]cnc2nc(SCCOc3ccc(Cl)cc3)nc1-2
[1]
  EC50: > 195 µM (not active)

## CN(C)c1ccc(C(C[N+](=O)[O-])c2c(N)n(C)c(=O)n(C)c2=O)c(F)c1C#N (centres undefined)
[4]
  EC50: > 260 µM (inactive)

## CN1C(=O)NC(c2cccc(O)c2)C(C(=O)c2cccs2)C1(O)C(F)(F)F (centres undefined)
[5]
  EC50: > 120 µM (not active)
[6]
  EC50: > 120 µM (not active)
H4
  EC50: 3.94 µM (active)

## CCOc1ccc2nc(N3CCOCC3)nc(C)c2c1
[5]
  EC50: 32 µM (active)
[6]
  EC50: 0.256 µM (active)

## Cc1ccc(C)c(Cn2nnc3c(=O)[nH]c(C4CCN(C(=O)c5cccs5)CC4)nc32)c1
[4]
  EC50: > 260 µM (inactive)

## Cc1ccc(NC(=O)CSc2nnc(N)s2)cc1S(=O)(=O)N1CCOCC1
[8]
  EC50: > 300 µM (not active)
[9]
  EC50: > 300 µM (not active)

## Cc1nnc(SCc2ccccc2)n1CC1CCCO1 (centres undefined)
Large T antigen
  IC50: > 100 µM (active)

## CCOc1cc(C(c2c(O)nc(SC)nc2O)c2c(O)nc(SC)nc2O)ccc1O
Large T antigen
  IC50: > 100 µM (active)

## CCOC(=O)C1CCN(C(=O)CCC(=O)NNc2nc3ccccc3c3nc(C)nn23)CC1
[8]
  EC50: 53.9 µM (active)
[9]
  EC50: 1.41 µM (active)

## N#Cc1c(-c2ccccc2)c(-c2ccccc2)nn(CC(=O)NNC(=O)Nc2ccccc2)c1=O
[5]
  EC50: > 120 µM (not active)
[6]
  EC50: 15.2 µM (active)
H4
  EC50: > 120 µM (not active)

## Cc1cc(CNC(=O)c2cccc(OC3CCN(S(=O)(=O)N(C)C)CC3)c2)on1
[5]
  EC50: 8.49 µM (active)
[6]
  EC50: 10.8 µM (active)
H4
  EC50: > 120 µM (not active)

## Cc1ccc(CCNC(=O)C2CCN(S(=O)(=O)c3ccc4c(c3)NC(=O)CO4)CC2)cc1
[4]
  EC50: > 260 µM (inactive)

## N=c1c(S(=O)(=O)c2ccc(Br)cc2)cc2c(=O)n3ccccc3nc2n1C1CCCCC1
[8]
  EC50: 9.42 µM (inconclusive)
[9]
  EC50: 8.8 µM (active)

## CN1C(=O)C2(Oc3ccccc3C3CC(c4ccccc4)=NN32)c2ccccc21 (centres undefined)
[5]
  EC50: 11.8 µM (active)
[6]
  EC50: 31.6 µM (active)
H4
  EC50: 14.6 µM (active)

## CCOC(=O)c1nnsc1Nc1ccc(C)c(C)c1
[4]
  EC50: 104 µM (active)

## Cn1ccc(C(=O)Oc2ccc(C(=O)Nc3ccc(F)cc3F)cc2)n1
[5]
  EC50: > 120 µM (not active)
[6]
  EC50: 16.8 µM (active)
H4
  EC50: > 120 µM (not active)

## CC1(C)CC(=O)c2sc(NC(=O)C3COc4ccccc4O3)nc2C1 (centres undefined)
[5]
  EC50: > 120 µM (not active)
[6]
  EC50: 15.9 µM (active)
H4
  EC50: > 120 µM (not active)

## COC(=O)c1cnc(N2CCCN(S(=O)(=O)c3ccc(C(F)(F)F)cc3)CC2)nc1C(F)(F)F
[2]
  EC50: 3.03 µM (active)
[3]
  EC50: > 60 µM (not active)
[4]
  EC50: > 260 µM (inactive)

## COc1cccc(CNc2nc3ccccc3n2C(C)C)c1O
[4]
  EC50: > 260 µM (inactive)

## Cc1nc2sccn2c(=O)c1S(=O)(=O)Nc1ccc(N2CCOCC2)c(Cl)c1
[1]
  EC50: 92.2 µM (active)

## Cc1ccc(OCCC(=O)N2CCN(c3ccc(O)cc3)CC2)cc1
Large T antigen
  IC50: 11.8 µM (active)

## O=c1c2sccc2nc(SCc2ccc([N+](=O)[O-])cc2)n1Cc1ccccn1
[7]
  CC50: 20.4 µM (active)
[4]
  EC50: 57.3 µM (active)

## N#CC1=C(N)Oc2c(c(=O)oc3ccccc23)C1c1ccccc1OC(=O)c1cccs1 (centres undefined)
[5]
  EC50: > 120 µM (not active)
[6]
  EC50: > 120 µM (not active)
H4
  EC50: > 120 µM (not active)

## CC(=O)Nc1ccc(C2=NN(Cc3nnc(-c4ccccc4)o3)C(=O)SC2)cc1
[4]
  EC50: > 260 µM (inactive)

## Cc1cccc(N2C(=O)C3C(c4ccccc4)OC4(C(=O)c5ccccc5C4=O)C3C2=O)c1 (centres undefined)
[5]
  EC50: > 120 µM (not active)
[6]
  EC50: > 120 µM (not active)
H4
  EC50: > 120 µM (not active)

## CC1(C)CC(=O)C2=C(C1)OC(N)=C(C#N)C2c1cccc(OC(=O)c2ccco2)c1 (centres undefined)
[8]
  EC50: > 300 µM (not active)
[9]
  EC50: > 300 µM (not active)

## COc1ccc(/C=N/NC(=O)c2ccc(N(C)S(=O)(=O)c3ccccc3)cc2)cc1
[8]
  EC50: > 300 µM (not active)
[9]
  EC50: > 300 µM (not active)

## CCOc1ccccc1/C=N/Nc1ccccc1[N+](=O)[O-]
[5]
  EC50: 0.351 µM (active)
[6]
  EC50: 4.07 µM (active)
H4
  EC50: 62.5 µM (inconclusive)

## COCC/N=C1/Sc2nc3c(C)cccc3cc2CN1Cc1ccco1
[7]
  CC50: 39.2 µM (active)
Large T antigen
  IC50: 67.5 µM (active)
Cytochrome P450 2C19
  AC50: 2.51 µM (inconclusive)

## COc1ccc(/C=N/Nc2nc(N3CCCC3)nc(N3CCCC3)n2)cc1O
Large T antigen
  IC50: 10.2 µM (active)
[10]
  IC50: 62.2 µM (active)

## O=[N+]([O-])c1ccc(/C=N/N=C(/Nc2ccccn2)c2ccccn2)cc1
[5]
  EC50: > 60 µM (not active)
[6]
  EC50: > 120 µM (not active)
H4
  EC50: > 120 µM (not active)

## COCCCNC(=S)N/N=C/c1ccc(O)cc1O
Large T antigen
  IC50: 9.14 µM (active)

## COc1cccc2c(N/N=C/c3ccc(O)c(O)c3)cc(C)nc12
Large T antigen
  IC50: 23.8 µM (active)

## Cc1cccc(/C=N/c2sc3c(c2C#N)CCN(Cc2ccccc2)C3)c1O
[5]
  EC50: 15.2 µM (active)
[6]
  EC50: 30.1 µM (active)
H4
  EC50: 20.2 µM (active)

## Nc1ccccc1C(=O)N/N=C1\C2CN3CCN(C2)CC1(c1ccccc1)C3
[5]
  EC50: > 120 µM (not active)
[6]
  EC50: > 120 µM (not active)
H4
  EC50: 8.13 µM (active)
